In assay [1] the target is T1, recombinant human Meningioma Expressed Antigen 5 (MGEA5), also referred to as O-GlcNAcase (OGA) (Homo sapiens, UniProt O60502).
T1 construct: Full length OGA enzyme was purchased at OriGene (cat #TP322411); purchased OriGene TP322411
T1 sequence (O60502 1-916): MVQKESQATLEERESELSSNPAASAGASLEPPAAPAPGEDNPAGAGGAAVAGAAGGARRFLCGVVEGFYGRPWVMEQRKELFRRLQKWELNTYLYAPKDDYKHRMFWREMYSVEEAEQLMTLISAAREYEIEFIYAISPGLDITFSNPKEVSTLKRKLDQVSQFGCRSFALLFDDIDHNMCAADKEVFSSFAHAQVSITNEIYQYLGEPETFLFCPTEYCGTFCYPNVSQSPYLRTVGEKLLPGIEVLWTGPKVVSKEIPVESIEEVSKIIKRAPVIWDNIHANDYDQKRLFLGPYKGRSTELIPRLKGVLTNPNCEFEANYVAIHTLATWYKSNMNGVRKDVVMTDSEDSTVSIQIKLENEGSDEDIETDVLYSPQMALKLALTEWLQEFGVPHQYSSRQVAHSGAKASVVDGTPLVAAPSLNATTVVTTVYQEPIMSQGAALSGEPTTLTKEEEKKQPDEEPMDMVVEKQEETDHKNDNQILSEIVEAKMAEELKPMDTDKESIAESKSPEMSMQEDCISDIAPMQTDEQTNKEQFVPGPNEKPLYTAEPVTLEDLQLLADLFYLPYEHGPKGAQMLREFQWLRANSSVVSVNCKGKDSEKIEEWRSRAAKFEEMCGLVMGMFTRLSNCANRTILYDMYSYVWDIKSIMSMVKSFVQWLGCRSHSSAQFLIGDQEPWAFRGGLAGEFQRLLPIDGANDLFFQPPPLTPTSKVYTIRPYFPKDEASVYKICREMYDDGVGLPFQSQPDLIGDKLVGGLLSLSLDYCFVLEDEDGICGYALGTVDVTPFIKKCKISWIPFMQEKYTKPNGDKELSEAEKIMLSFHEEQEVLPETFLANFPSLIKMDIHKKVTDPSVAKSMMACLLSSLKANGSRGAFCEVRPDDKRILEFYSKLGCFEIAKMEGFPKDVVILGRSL
Nature of the assay: OGA biochemical assay (inhibition of FM-GlcNAc hydrolysis, fluorescence). The conditions noted are these: for Emax: read-out: Enzymatic Emax (%); for IC50: read-out: Enzymatic hOGA, pIC50 (converted). The source says: The assay is based on the inhibition of the hydrolysis of fluorescein mono-B-D-N-Acetyl-Glucosamine (FM-GcNAc) (Mariappa et al. 2015, Biochem J470:255) by the recombinant human Meningioma Expressed Antigen 5 (MGEA5), also referred to as O-GlcNAcase (OGA). The hydrolysis FM-GlcNAc (Marker Gene technologies, cat #M1485) results in the formation of B-D-N-glucosamineacetate and fluorescein. The fluorescence of the latter can be measured at excitation wavelength 485 nm and emission wavelength 538 nm. An increase in enzyme activity results in anincrease in fluorescence signal. Full length OGA enzyme was purchased at OriGene (cat #TP322411). The enzyme was stored in 25 mM Tris.HCl, pH 7.3, 100 mM glycine, 10% glycerol at −20° C. Thiamet G and GlcNAcStatin were tested as reference compounds (Yuzwa et al. 2008 Nature Chemical Biology 4:483; Yuzwa et al. 2012 Nature Chemical Biology 8:393). The assay was performed in 200 mM Citrate/phosphate buffer supplemented with 0.005% Tween-20. 35.6 g Na2HPO4 2H2O (Sigma, #C0759) were dissolved in 1 L water to obtain a 200 mM solution. 19.2 g citric acid (Merck, #1.06580) was dissolved in 1 L water to obtain a 100 mM solution. pH of the sodiumphosphate solution was adjusted with the citric acid solution to 7.2. The buffer to stop the reaction consists of a 500 mM Carbonate buffer, pH 11.0. 734 mg FM-GlcNAc were dissolved in 5.48 mL DMSO to obtain a 250 mM solution and was stored at −20° C. OGA was used at a 2 nM concentration and FM-GcNAc at a 100 uM final concentration. Dilutions were prepared in assay buffer.
50 nl of a compound dissolved in DMSO was dispensed on Black Proxiplate™ 384 Plus Assay plates (Perkin Elmer, #6008269) and 3 μl fl-OGA enzyme mix added subsequently. Plates were pre-incubated for 60 min at room temperature and then 2 μl FM-GlcNAc substrate mix added.
Plates were briefly centrifuged for 1 min at 1000 rpm and incubate at room temperature for 6 h. To stop the reaction 5 μl STOP buffer were added and plates centrifuge again 1 min at 1000 rpm. Fluorescence was quantified in the Thermo Scientific Fluoroskan Ascent or the PerkinElmer EnVision with excitation wavelength 485 nm and emission wavelength 538 nm.
For analysis a best-fit curve is fitted by a minimum sum of squares method. From this an IC50 value and Hill coefficient was obtained. High control (no inhibitor) and low control (saturating concentrations of standard inhibitor) were used to define the minimum and maximum values.

Another assay deals with T2, OGA (Homo sapiens, UniProt O60502).
T2 construct: HEK293 cells inducible for P301L mutant human Tau (isoform 2N4R) were established at Janssen; endogenous in cells; host or cells: HEK293 cells inducible for P301L mutant human Tau (2N4R)
T2 sequence (O60502 1-916): T1 sequence (O60502 1-916)
Nature of the assay: OGA cellular assay (ICC detection of O-GlcNAcylated proteins in HEK293 cells inducible for P301L mutant human Tau). The conditions noted are these: 6 hours incubation; for Emax: HEK293, HEK293 cells inducible for P301L mutant human Tau, maximum = Thiamet G 200 uM; for EC50: HEK293 cells inducible for P301L mutant human Tau, read-out: Cellular hOGA, pEC50 (converted). It counts as cell-based. Here is the method: HEK293 cells inducible for P301L mutant human Tau (isoform 2N4R) were established at Janssen. Thiamet-G was used for both plate validation (high control) and as reference compound (reference EC50 assay validation). OGA inhibition is evaluated through the immunocytochemical (ICC) detection of O-GlcNAcylated proteins by the use of a monoclonal antibody (CTD110.6; Cell Signaling, #9875) detecting 0-GlcNAcylated residues as previously described (Dorfmueller et al. 2010 Chemistry & biology, 17:1250). Inhibition of OGA will result in an increase of 0-GlcNAcylated protein levels resulting in an increased signal in the experiment. Cell nuclei are stained with Hoechst to give a cell culture quality control and a rough estimate of immediate compounds toxicity, if any. ICC pictures are imaged with a Perkin Elmer Opera Phenix plate microscope and quantified with the provided software Perkin Elmer Harmony 4.1.
Cells were propagated in DMEM high Glucose (Sigma, #D5796) following standard procedures. 2 days before the cell assay cells are split, counted and seeded in Poly-D-Lysine (PDL) coated 96-wells (Greiner, #655946) plate at a cell density of 12,000 cells per cm^2 (4,000 cells per well) in 100p of Assay Medium (Low Glucose medium is used to reduce basal levels of GlcNAcylation) (Park et al. 2014 The Journal of biological chemistry 289:13519). At the day of compound test medium from assay plates was removed and replenished with 90 μl of fresh Assay Medium. 10 μl of compounds at a 10 fold final concentration were added to the wells. Plates were centrifuged shortly before incubation in the cell incubator for 6 hours. DMSO concentration was set to 0.2%. Medium is discarded by applying vacuum. For staining of cells medium was removed and cells washed once with 100 μl D-PBS (Sigma, #D8537). From next step onwards unless other stated assay volume was always 50p and incubation was performed without agitation and at room temperature. Cells were fixed in 50 μl of a 4% paraformaldehyde (PFA, Alpha aesar, #043368) PBS solution for 15 minutes at room temperature. […] Before analysis samples were washed 2 times manually for 5 minutes in ICC base buffer.
Imaging is performed using Perkin Elmer Phenix Opera using a water 20× objective and recording 9 fields per well. Intensity readout at 488 nm is used as a measure of O-GlcNAcylation level of total proteins in wells. To assess potential toxicity of compounds nuclei were counted using the Hoechst staining. IC50-values are calculated using parametric non-linear regression model fitting. As a maximum inhibition Thiamet G at a 200 uM concentration is present on each plate. In addition, a concentration response of Thiamet G is calculated on each plate.

SMILES strings stand for the structures.

By Emax is commonly meant the greatest response seen or fitted, relative to the assay's reference.

`Cc1cc(OC2CCN(C(C)c3cnc4c(c3)OCCO4)CC2)cc(C(F)(F)F)n1` (stereo not shown) [Compound 19]: in assay [1], the maximum response (Emax) was found to be 92% and the IC50 was 1000 nM. In addition, on OGA, the Emax is 17% and the EC50 is above 1000 nM.

As for `Cc1cc(OC2CCN(C(C)c3ccc4sc(C)nc4n3)CC2)cc(C(F)(F)F)n1` (stereo not shown) [Compound 21], in assay [1], the maximal effect (Emax) amounted to 101% and the IC50 is 50.1 nM. Further, on OGA, the Emax stood at 55% and the EC50 was 813 nM.

As to `Cc1cc(OC2CCN(C(C)c3ccc4c(c3)OCCO4)CC2)cc(C)n1` (stereo not shown) [Compound 25], in assay [1], the Emax stood at 96% and the IC50 was 501 nM. For the same molecule, at OGA, the Emax was 56% and the EC50 is 631 nM.

With `Cc1cc(OC2CCN(C(C)c3ccc4sc(C)nc4n3)CC2)c(Cl)c(C)n1` (stereo not shown) [Compound 27], in assay [1], the Emax stood at 99% and the IC50 is 100 nM. On OGA, the Emax stood at 76% and the EC50 was 501 nM.

As to `Cc1cc(O[C@H]2CCN(C(C)c3ccc4c(n3)OCCO4)C[C@H]2C)cc(C)n1` (stereo partly shown) [Compound 28], in assay [1], the Emax stood at 101% and the IC50 is 10 nM. For the same molecule, on OGA, the Emax was found to be 68% and the EC50 was 126 nM.

For the molecule `Cc1cc(OC2CCN(C(C)c3cc4c(cn3)OCCO4)CC2)cc(C)n1` (stereo not shown) [Compound 29], in assay [1], the Emax worked out at 60% and the IC50 was 5010 nM. At OGA, the Emax was 7% and the EC50 is above 1000 nM.

As for `Cc1cc(OC2CCN(C(C)c3nc4nc(C)sc4cc3F)CC2)cc(C)n1` (stereo not shown) [Compound 32], in assay [1], the Emax came out at 100% and the IC50 was 15.8 nM. For the same molecule, at OGA, the Emax was determined as 72% and the EC50 is 79.4 nM.

As for `Cc1cc(OC2CCN(C(C)c3nc4nc(C)sc4cc3F)CC2)nc(C)n1` (stereo not shown) [Compound 33], in assay [1], the Emax was determined as 100% and the IC50 is 15.8 nM. Besides, at OGA, the Emax was found to be 65% and the EC50 was 251 nM.

Turning to `Cc1cc(OC2CCN(C(C)c3cnc4c(c3)OCCN4)CC2)cc(C)n1` (stereo not shown) [Compound 34], in assay [1], the maximum response (Emax) turned out to be 102% and the IC50 was 158 nM. At OGA, the Emax was determined as 77% and the EC50 was 158 nM.

As to `Cc1cc(OC2CCN(C(C)c3nc4c(cc3F)CCO4)CC2)c(Cl)c(C)n1` (stereo not shown) [Compound 35], in assay [1], the maximal effect (Emax) is 101% and the IC50 was 7.94 nM. At OGA, the Emax came out at 98% and the EC50 is 25.1 nM.

Regarding `Cc1cc(COC2CCN(Cc3ccc4sc(C)nc4n3)CC2)cc(C)n1` [Compound 36], in assay [1], the Emax was 90% and the IC50 was 1260 nM. At OGA, the Emax is 7% and the EC50 was above 1000 nM.

For `COc1cc(OC2CCN(C(C)c3cnc4c(c3)OCCO4)CC2)cc(C)n1` (stereo not shown) [Compound 37], in assay [1], the Emax worked out at 98% and the IC50 is 398 nM. In addition, on OGA, the maximum response (Emax) amounted to 23% and the EC50 was above 1000 nM.

On to `Cc1cc(OC2CCN(C(C)c3cc4nc(C)sc4cc3F)CC2)nc(C)n1` (stereo not shown) [Compound 38], for which, in assay [1], the Emax is 101% and the IC50 is 15.8 nM. Moreover, on OGA, the Emax was 64% and the EC50 is 251 nM.

In the case of `CC(c1nc2c(cc1F)OCCO2)N1CCC(Oc2ccc(C(F)(F)F)nn2)CC1` (stereo not shown) [Compound 39], in assay [1], the Emax was determined as 101% and the IC50 was 20 nM. Moreover, on OGA, the Emax stood at 73% and the EC50 was 316 nM.

With `Cc1cc(OC2CCN(C(C)c3cnc4sc(C)nc4c3)CC2)cc(C)n1` (stereo not shown) [Compound 40], in assay [1], the Emax came to 101% and the IC50 was 126 nM. Also, on OGA, the Emax turned out to be 59% and the EC50 was 631 nM.

Take `Cc1ccc(OC2CCN(C(C)c3ccc4c(n3)OCCO4)CC2)cn1` (stereo not shown) [Compound 41]: in assay [1], the maximum response (Emax) is 99% and the IC50 is 50.1 nM. Besides, at OGA, the Emax turned out to be 74% and the EC50 was 501 nM.

For `CC(c1ccc2c(n1)OCCO2)N1CCC(Oc2ccc(C(F)(F)F)cn2)CC1` (stereo not shown) [Compound 42], in assay [1], the Emax is 101% and the IC50 is 100 nM. Besides, at OGA, the Emax was determined as 21% and the EC50 was above 1000 nM.

Regarding `CC(c1ccc2c(n1)OCCO2)N1CCC(COc2ccc(C(F)(F)F)cn2)CC1` (stereo not shown) [Compound 43], in assay [1], the Emax turned out to be 96% and the IC50 was 501 nM. Besides, on OGA, the Emax turned out to be 25% and the EC50 is above 1000 nM.

With `Cc1ccnc(OC2CCN(C(C)c3ccc4c(n3)OCCO4)CC2)c1` (stereo not shown) [Compound 44], in assay [1], the Emax came to 98% and the IC50 was 200 nM. Further, on OGA, the Emax turned out to be 57% and the EC50 is 501 nM.
